# Measurements: ChEMBL document CHEMBL1201862, “PubChem BioAssay data set” (2004)
#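 48-hour exposure; five concentrations; linearly interpolated endpoints. Abbreviation: GI50, concentration required for 50% inhibition of growth.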 Active and inactive are the calls of the source. No stated cut-off is given here; in the data, active = GI50 up to about 1.1 µM and inactive = higher.
# How the values were obtained:
# Test in all cases: growth of human tumour cells (NCI), 48 h
# [1] = test system: SK-MEL-2
# [2] = test system: HOP-18
# [3] = test system: SK-MEL-5
# [4] = test system: ACHN
# [5] = test system: UO-31
# [6] = test system: LXFL 529
# [7] = test system: CAKI-1
# [8] = test system: SN12C
# [9] = test system: SNB-78
# [10] = test system: SK-MEL-28
# [11] = test system: SW-620
# [12] = test system: HL-60
# [13] = test system: 786-0
# [14] = test system: OVCAR-3
# [15] = test system: HOP-92
# [16] = test system: HT-29
# [17] = test system: NCI-H23
Structure (SMILES),GI50 [1],GI50 [2],GI50 [3],GI50 [4],GI50 [5],GI50 [6],GI50 [7],GI50 [8],GI50 [9],GI50 [10],GI50 [11],GI50 [12],GI50 [13],GI50 [14],GI50 [15],GI50 [16],GI50 [17]
CN(c1ccccc1)c1nc(=[N+]2CCCC2)ss1.[O-][Cl+3]([O-])([O-])[O-],> 100 µM (inactive),> 100 µM (inactive),> 100 µM (inactive),> 100 µM (inactive),> 100 µM (inactive),> 100 µM (inactive),> 100 µM (inactive),> 100 µM (inactive),> 100 µM (inactive),> 100 µM (inactive),> 100 µM (inactive),> 100 µM (inactive),6.5 µM (inactive),> 100 µM (inactive),,,
CN(C)C(=N)NC(=S)N(C)C,> 100 µM (inactive),> 100 µM (inactive),> 100 µM (inactive),> 100 µM (inactive),> 100 µM (inactive),> 100 µM (inactive),> 100 µM (inactive),> 100 µM (inactive),> 100 µM (inactive),> 100 µM (inactive),> 100 µM (inactive),> 100 µM (inactive),> 100 µM (inactive),,> 100 µM (inactive),> 100 µM (inactive),> 100 µM (inactive)
CC(=O)c1c2c(cc3c1CC1(C3)Cc3cc4c(c(C(=O)O)c3C1)CCC4)CCC2 (stereo not drawn),,79.8 µM (inactive),35.7 µM (inactive),35.9 µM (inactive),26.9 µM (inactive),40.7 µM (inactive),36.9 µM (inactive),31.4 µM (inactive),55.6 µM (inactive),44.5 µM (inactive),48.6 µM (inactive),16.7 µM (inactive),47.2 µM (inactive),19.7 µM (inactive),33.2 µM (inactive),44.5 µM (inactive),26.2 µM (inactive)
Clc1ccc(Cl)c2[s+]snc12,,> 100 µM (inactive),76 µM (inactive),> 79.1 µM (inactive),> 100 µM (inactive),34.2 µM (inactive),> 100 µM (inactive),> 79.3 µM (inactive),> 100 µM (inactive),> 100 µM (inactive),23.6 µM (inactive),50.7 µM (inactive),> 40.9 µM (inactive),> 63.5 µM (inactive),> 60.7 µM (inactive),25 µM (inactive),> 100 µM (inactive)
COC1(OC)CC2C(=O)N(Cc3ccccc3)C1C(S(=O)(=O)c1ccccc1)C2C(C)S(=O)(=O)c1ccccc1 (stereo not drawn),> 100 µM (inactive),> 100 µM (inactive),> 100 µM (inactive),> 100 µM (inactive),,> 100 µM (inactive),> 100 µM (inactive),> 100 µM (inactive),> 100 µM (inactive),> 100 µM (inactive),> 100 µM (inactive),> 100 µM (inactive),> 100 µM (inactive),> 100 µM (inactive),17 µM (inactive),> 100 µM (inactive),> 100 µM (inactive)
Cc1cc(O)c(C(=O)O)c2c1C(=O)c1c(O)c(OCC(O)C(O)C(O)C(O)CO)c(O)c(O)c1C2=O.NCCNCCO (stereo not drawn),> 100 µM (inactive),> 100 µM (inactive),> 100 µM (inactive),,> 100 µM (inactive),> 100 µM (inactive),> 100 µM (inactive),> 100 µM (inactive),> 100 µM (inactive),> 100 µM (inactive),> 100 µM (inactive),,> 100 µM (inactive),> 100 µM (inactive),> 100 µM (inactive),> 100 µM (inactive),> 100 µM (inactive)
CC(=O)OC1CC[C@@]2(C)C(CC(OC3OC(CO)C(O)C(O)C3O)[C@]3(C)C2CCC24CC23CC[C@H]4C(C)CC(O)[C@@H](O)C(C)(C)O)C1(C)C (stereo partly drawn),10.3 µM (inactive),14 µM (inactive),8.93 µM (inactive),> 50 µM (inactive),> 50 µM (inactive),8.99 µM (inactive),41.7 µM (inactive),12.7 µM (inactive),> 5 µM (inactive),9.77 µM (inactive),16.6 µM (inactive),11.6 µM (inactive),13.1 µM (inactive),16.5 µM (inactive),10 µM (inactive),16.9 µM (inactive),> 50 µM (inactive)
O=C(Cc1nc2ccc(C(=O)c3ccccc3)cc2nc1O)C(=O)Nc1ccc(C(F)(F)F)cc1[N+](=O)[O-],> 100 µM (inactive),65.2 µM (inactive),39.7 µM (inactive),> 100 µM (inactive),61.2 µM (inactive),35.8 µM (inactive),30.8 µM (inactive),> 100 µM (inactive),81.1 µM (inactive),82.6 µM (inactive),47.4 µM (inactive),31.6 µM (inactive),> 100 µM (inactive),38.7 µM (inactive),35.3 µM (inactive),50.9 µM (inactive),75 µM (inactive)
COc1ccc(C(=O)Cc2ccc(Br)cc2)cc1OC,> 100 µM (inactive),> 100 µM (inactive),> 100 µM (inactive),> 100 µM (inactive),> 100 µM (inactive),> 100 µM (inactive),> 100 µM (inactive),> 100 µM (inactive),> 100 µM (inactive),,> 100 µM (inactive),> 100 µM (inactive),,> 100 µM (inactive),,> 100 µM (inactive),> 100 µM (inactive)
N#CC1=C(c2ccccc2)NNC(c2ccc(Cl)cc2)CC1=O (stereo not drawn),29.4 µM (inactive),> 100 µM (inactive),20.9 µM (inactive),49.2 µM (inactive),,28.7 µM (inactive),40.6 µM (inactive),45.5 µM (inactive),> 100 µM (inactive),91.4 µM (inactive),33.5 µM (inactive),17.6 µM (inactive),,,43.3 µM (inactive),30.8 µM (inactive),73.6 µM (inactive)
C/C(=N/Nc1ccc([N+](=O)[O-])cc1[N+](=O)[O-])C(CC(C(=O)NCc1ccccc1)/C(C)=N\Nc1ccc([N+](=O)[O-])cc1[N+](=O)[O-])C(=O)NCc1ccccc1 (stereo not drawn),10.1 µM (inactive),2.69 µM (inactive),,5.46 µM (inactive),2.39 µM (inactive),10.9 µM (inactive),7.03 µM (inactive),4.05 µM (inactive),9.16 µM (inactive),7.8 µM (inactive),10.8 µM (inactive),< 0.01 µM (active),3.24 µM (inactive),11.3 µM (inactive),2.88 µM (inactive),6.14 µM (inactive),13.3 µM (inactive)
c1ccc2c(c1)[nH]c1c2ncc2[nH]c3ccccc3c21,7.29 µM (inactive),2.88 µM (inactive),5.48 µM (inactive),4.24 µM (inactive),4.05 µM (inactive),3.64 µM (inactive),3.73 µM (inactive),3.51 µM (inactive),4.95 µM (inactive),11.7 µM (inactive),2.9 µM (inactive),2 µM (inactive),2.32 µM (inactive),2.54 µM (inactive),2.57 µM (inactive),2.88 µM (inactive),10.4 µM (inactive)
N#COc1ccc(Oc2ccc(OC#N)cc2)cc1,> 100 µM (inactive),> 100 µM (inactive),> 100 µM (inactive),35.5 µM (inactive),89.7 µM (inactive),> 100 µM (inactive),> 100 µM (inactive),55.5 µM (inactive),> 100 µM (inactive),> 100 µM (inactive),,46.3 µM (inactive),39.1 µM (inactive),> 100 µM (inactive),> 100 µM (inactive),70.6 µM (inactive),70.5 µM (inactive)
COc1ccc(-c2nc(Sc3c([N+](=O)[O-])ncn3C)n[nH]2)cc1,2.25 µM (inactive),0.296 µM (active),2.65 µM (inactive),3.61 µM (inactive),5.13 µM (inactive),3.12 µM (inactive),4.35 µM (inactive),2.64 µM (inactive),4.22 µM (inactive),4.21 µM (inactive),3.26 µM (inactive),,3.27 µM (inactive),1.94 µM (inactive),2.55 µM (inactive),2.39 µM (inactive),1.77 µM (inactive)
O=S1(=O)C[C@@H](O)[C@H](O)CS1,,> 100 µM (inactive),> 100 µM (inactive),> 100 µM (inactive),> 100 µM (inactive),> 100 µM (inactive),> 100 µM (inactive),> 100 µM (inactive),> 100 µM (inactive),> 100 µM (inactive),> 100 µM (inactive),> 100 µM (inactive),> 100 µM (inactive),> 100 µM (inactive),> 100 µM (inactive),> 100 µM (inactive),> 100 µM (inactive)
O=C1CN=C(c2ccccc2)c2ccncc2N1,> 100 µM (inactive),> 100 µM (inactive),> 100 µM (inactive),> 100 µM (inactive),> 100 µM (inactive),> 100 µM (inactive),> 100 µM (inactive),> 100 µM (inactive),> 100 µM (inactive),> 100 µM (inactive),> 100 µM (inactive),> 100 µM (inactive),> 100 µM (inactive),> 100 µM (inactive),> 100 µM (inactive),> 100 µM (inactive),> 100 µM (inactive)
